Patent US20030232822A1, “Indole derivatives useful for the treatment of CNS disorders” (H. Lundbeck A/S, priority 2000, published 2003)
pIC50: −log10 of the molar value. Where a name gives a salt, the structure may show the parent alone. Read-outs that look alike come from different tables or passages of the source.

Key:
[1] = molecular target: T1, human cloned dopamine D4.2 receptors (Homo sapiens, UniProt P21917, DEL265-296); assay: Inhibition of the binding of [3H]YM-09151-2 to human dopamine D4.2 receptors; settings: [3H]YM-09151-2 0.06 nM, membranes of CHO-cells; for D4-binding (% inhibition): at 50 nM
T1 construct: expressed in transfected cells; host or cells: CHO cells
T1 sequence (P21917 with tags, fused parts or gaps DEL265-296): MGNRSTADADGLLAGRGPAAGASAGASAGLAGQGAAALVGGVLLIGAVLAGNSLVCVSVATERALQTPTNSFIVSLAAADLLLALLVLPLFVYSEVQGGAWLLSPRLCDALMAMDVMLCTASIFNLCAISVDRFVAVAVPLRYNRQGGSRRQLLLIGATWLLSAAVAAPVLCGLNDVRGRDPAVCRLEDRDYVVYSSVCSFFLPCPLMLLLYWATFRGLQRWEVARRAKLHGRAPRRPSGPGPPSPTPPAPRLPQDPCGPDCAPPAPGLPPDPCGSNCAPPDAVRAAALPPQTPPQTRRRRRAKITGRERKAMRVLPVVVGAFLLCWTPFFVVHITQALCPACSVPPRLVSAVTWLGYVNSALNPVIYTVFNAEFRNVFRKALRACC
Description: Inhibition of the Binding of [^3H]YM-09151-2 to Human Dopamine D4.2 Receptors
By this method, the inhibition by drugs of the binding of [^3H]YM-09151-2 (0.06 nM) to membranes of human cloned dopamine D4.2 receptors expressed in CHO-cells is determined in vitro. Method modified from NEN Life Science Products, Inc., technical data certificate PC2533-10/96.

5-HT2A receptors = molecular target: T2, 5-HT2A receptors (Rattus norvegicus, UniProt P14842); assay: Inhibition of the binding of [3H]Ketanserin to 5-HT2A receptors; settings: for inhibition at 0.1 µM: read-out: 5-HT2A-binding (% inhibition); for 5-HT2A-binding (% inhibition): at 100 nM
T2 construct: membranes from rat brain (cortex) in vitro; from tissue; host or cells: rat brain cortex membranes
Description: Inhibition of the Binding of [^3H]Ketanserin to 5-HT2A Receptors
The compounds were tested with respect to their affinity for 5-HT2A receptors by determining their ability to inhibit the binding of [^3H]Ketanserin (0.50 nM) to membranes from rat brain (cortex) in vitro. Method described in Sanchez et al. Drug Dev. Res. 1991, 22, 239-250.

dopamine D4 receptors = molecular target: T3, dopamine D4 receptors (Homo sapiens, UniProt P21917); settings: various in vitro efficacy assays, Gazi et al.; cited from earlier work
T3 sequence (P21917 1-419): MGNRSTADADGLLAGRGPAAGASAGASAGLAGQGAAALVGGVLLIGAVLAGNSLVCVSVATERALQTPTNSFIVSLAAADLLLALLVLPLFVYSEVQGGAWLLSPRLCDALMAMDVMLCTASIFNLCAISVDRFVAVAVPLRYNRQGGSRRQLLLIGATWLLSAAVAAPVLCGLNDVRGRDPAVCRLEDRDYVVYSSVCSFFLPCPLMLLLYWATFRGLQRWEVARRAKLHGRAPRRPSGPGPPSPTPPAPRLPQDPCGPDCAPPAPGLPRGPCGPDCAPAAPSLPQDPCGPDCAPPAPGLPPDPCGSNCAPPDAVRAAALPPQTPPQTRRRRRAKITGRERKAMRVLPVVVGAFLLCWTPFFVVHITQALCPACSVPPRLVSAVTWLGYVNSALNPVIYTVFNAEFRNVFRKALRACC

[2] = [3H]Ketanserin 0.50 nM, membranes from rat brain (cortex)
[3] = [3H]Ketanserin 0.50 nM, membranes from rat brain (cortex), read-out: 5-HT2A-binding (IC50)

T2 sequence (P14842 whole entry): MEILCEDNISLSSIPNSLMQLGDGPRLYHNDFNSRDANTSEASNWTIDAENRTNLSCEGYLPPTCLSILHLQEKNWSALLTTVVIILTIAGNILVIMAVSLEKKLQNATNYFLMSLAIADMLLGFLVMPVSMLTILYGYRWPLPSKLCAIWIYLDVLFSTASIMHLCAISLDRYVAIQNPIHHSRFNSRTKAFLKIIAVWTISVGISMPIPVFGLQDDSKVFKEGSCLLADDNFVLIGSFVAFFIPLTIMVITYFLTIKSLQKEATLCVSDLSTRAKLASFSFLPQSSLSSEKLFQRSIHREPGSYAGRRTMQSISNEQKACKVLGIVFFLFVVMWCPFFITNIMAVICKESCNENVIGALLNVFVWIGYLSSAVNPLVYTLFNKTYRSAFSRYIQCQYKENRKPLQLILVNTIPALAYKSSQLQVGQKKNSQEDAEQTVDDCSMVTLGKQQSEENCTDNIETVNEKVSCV

pIC50 [1] | pIC50 (5-HT2A receptors; [3]) | SMILES | D4-binding (% inhibition) [1] [% at 50 nM] | other results
 |  | O=C1CCc2ccccc2N1CCCCN1CCN(c2ccc3cc[nH]c3c2)CC1 [Compound 2d, 6-{4-[4-(2-Oxo-3,4-dihydro-2H-quinolin-1-yl)butan-1-yl]piperazin-1-yl}-1H-indole] | 58 | inhibition at 0.1 µM (5-HT2A receptors): 46%
 |  | O=C1COc2ccccc2N1CCCCN1CCN(c2ccc3[nH]ccc3c2)CC1 [Compound 3a, 5-{4-[4-(3-Oxo-3,4-dihydro-2H-1,4-benzoxazin-4-yl)butan-1-yl]piperazin-4-yl}-1H-indole] | 56 | 5-HT2A-binding (% inhibition) (5-HT2A receptors; [2]): 89% at 100 nM
8.59 | 7.57 | c1ccc2c(c1)CCCN2CCCN1CCN(c2ccc3[nH]ccc3c2)CC1 [Compound 4a, 5-{4-[3-(3,4-Dihydro-2H-quinolin-1-yl)propan-1-yl]piperazin-1-yl}-1H-indole] |  | 
 | 7.05 | O=C1c2ccccc2CCN1CCCN1CCN(c2ccc3[nH]ccc3c2)CC1 [Compound 3b] | 78 | 
 |  | CC(C)Oc1cccnc1N(C)C1CCN(Cc2ccccc2)CC1 [Compound U-101958] |  | Functional activity at D4 receptor (literature) (dopamine D4 receptors): partial D4 receptor agonists
8.49 | 7.89 | O=C1CCc2ccccc2N1CCCN1CCN(c2ccc3[nH]ccc3c2)CC1 [Compound 2a, 5-{4-[3-(2-Oxo-3,4-dihydro-2H-quinolin-1-yl)propan-1-yl]piperazin-1-yl}-1H-indole] |  | 
7.74 | 7.77 | O=C1CCc2ccccc2N1CCCCN1CCN(c2ccc3[nH]ccc3c2)CC1 [Compound 2b, 5-{4-[4-(2-Oxo-3,4-dihydro-2H-quinolin-1-yl)butan-1-yl]piperazin-1-yl}-1H-indole] |  | 
8.80 | 7.66 | O=C1CCc2ccccc2N1CCCN1CCC(c2ccc3[nH]ccc3c2)CC1 [Compound 2f, 5-{1-[3-(2-Oxo-3,4-dihydro-2H-quinolin-1-yl)propan-1-yl]piperidin-4-yl}-1H-indole] |  | 
 |  | O=C1c2ccccc2CCN1CCCCN1CCN(c2ccc3[nH]ccc3c2)CC1 [Compound 3c] | 56 | 5-HT2A-binding (% inhibition) (5-HT2A receptors; [2]): 93% at 100 nM
 |  | O=C(CCN1CCN(c2ccc3[nH]ccc3c2)CC1)N1CCc2ccccc2C1 [Compound 5a, 5-{4-[3-(3,4-Dihydro-1H-isoquinolin-2-yl)-3-oxopropan-1-yl]piperazin-1-yl}-1H-indole] | 73 | inhibition at 0.1 µM (5-HT2A receptors): 29%
 |  | O=C1CCc2ccccc2N1CCCCN1CCN(c2ccc3[nH]ccc3c2)CC1 (as salt: hydrochloride) [Compound 2b, 5-{4-[4-(2-Oxo-3,4-dihydro-2H-quinolin-1-yl)butan-1-yl]piperazin-1-yl}-1H-indole] |  | melting point: 233 to 236 °C
8.06 | 7.72 | c1ccc2c(c1)CCCN2CCCN1CCN(c2ccc3[nH]ccc3c2)CC1 [Compound 4b, 5-{4-[3-(3,4-Dihydro-2H-quinolin-1-yl)propan-1-yl]piperazin-1-yl}-1H-indole] |  | 
 | 7.54 | O=C1CCc2ccccc2N1CCN1CCN(c2ccc3[nH]ccc3c2)CC1 [Compound 1, 5-{4-[2-(2-Oxo-3,4-dihydro-2H-quinolin-1-yl)ethyl]piperazin-1-yl}-1H-indole] | 90 | 
 | 8.40 | O=C(CCCN1CCN(c2ccc3[nH]ccc3c2)CC1)N1CCc2ccccc2C1 [Compound 5b, 5-{4-[4-(3,4-Dihydro-1H-isoquinolin-2-yl)-4-oxobutan-1-yl]piperazin-1-yl}-1H-indole] | 81 | melting point: 122 to 125 °C
 | 7.49 | O=C1CCc2ccccc2N1CCCN1CCN(c2ccc3cc[nH]c3c2)CC1 [Compound 2c] | 94 | 

SMILES | pIC50 [1] | pIC50 (5-HT2A receptors; [3]) | D4-binding (% inhibition) [1] [% at 50 nM] | other results
O=C1CCc2ccccc2N1CCCN1CC=C(c2ccc3[nH]ccc3c2)CC1 [Compound 2e, 5-{1-[3-(2-Oxo-3,4-dihydro-2H-quinolin-1-yl)propan-1-yl]-3,6-dihydro-2H-pyridin-4-yl}-1H-indole] | 9.01 |  |  | pIC50 (5-HT2A receptors): 8.18
